ChEMBL document CHEMBL3044927, “Novel 4(3H)-quinazolinone analogs: synthesis and anticonvulsant activity” (Med Chem Res, 2013)
Active and inactive are the calls of the source. The rule behind the calls is not given here.

Experiments:
[1] = system: Mus musculus; assay: Anticonvulsant activity in Swiss albino Mus musculus (mouse) assessed as protection against PTZ-induced seizure at 1.5 mmol/kg, ip administered 30 min prior to PTZ-challenge measured up to 30 min relative to control; assay type: functional
[2] = system: Mus musculus; assay: Neurotoxicity against Swiss albino Mus musculus (mouse) at 1.5 mmol/kg, ip measured after 15 to 25 min by chimney test; assay type: toxicity, organism-based; conditions: in vivo
[3] = Therapeutic index, ratio of LD50 to ED50 in Swiss albino Mus musculus (mouse); assay type: organism-based; conditions: in vivo, read-out: Ratio LD50/ED50
[4] = system: Mus musculus; assay: Anticonvulsant activity in Swiss albino Mus musculus (mouse) assessed as protection against PTZ-induced seizure at 0.75 mmol/kg, ip administered 30 min prior to PTZ-challenge measured up to 30 min relative to control; assay type: functional
[5] = system: Mus musculus; assay: Neurotoxicity against Swiss albino Mus musculus (mouse) at 0.37 mmol/kg, ip measured after 15 to 25 min by chimney test; assay type: toxicity, organism-based; conditions: in vivo
[6] = Toxicity against i.p. dosed Swiss albino Mus musculus (mouse) by Sperman-Karber method; assay type: organism-based; conditions: in vivo, ip
[7] = system: Mus musculus; assay: Anticonvulsant activity in Swiss albino Mus musculus (mouse) assessed as protection against maximal electric shock-induced seizure at 0.18 mmol/kg, i.p. administered 30 min prior to maximal electric shock-challenge measured up to 30 min relative to control; assay type: functional
[8] = system: Mus musculus; assay: Anticonvulsant activity in Swiss albino Mus musculus (mouse) assessed as protection against picrotoxin-induced seizure at 0.37 mmol/kg, i.p. administered 30 min prior to picrotoxin-challenge measured up to 30 min relative to control; assay type: functional
[9] = system: Mus musculus; assay: Anticonvulsant activity in ip dosed Swiss albino Mus musculus (mouse) assessed as protection against PTZ-induced seizure administered 30 min prior to PTZ-challenge measured up to 30 min; assay type: functional
[10] = system: Mus musculus; assay: Anticonvulsant activity in Swiss albino Mus musculus (mouse) assessed as protection against PTZ-induced seizure at 0.37 mmol/kg, ip administered 30 min prior to PTZ-challenge measured up to 30 min relative to control; assay type: functional
[11] = system: Mus musculus; assay: Anticonvulsant activity in Swiss albino Mus musculus (mouse) assessed as protection against bicuculline-induced seizure at 0.18 mmol/kg, i.p. administered 30 min prior to bicuculline-challenge measured up to 30 min relative to control; assay type: functional
[12] = system: Mus musculus; assay: Anticonvulsant activity in Swiss albino Mus musculus (mouse) assessed as protection against picrotoxin-induced seizure at 0.75 mmol/kg, i.p. administered 30 min prior to picrotoxin-challenge measured up to 30 min relative to control; assay type: functional
[13] = system: Mus musculus; assay: Anticonvulsant activity in Swiss albino Mus musculus (mouse) assessed as protection against PTZ-induced seizure at 0.18 mmol/kg, ip administered 30 min prior to PTZ-challenge measured up to 30 min relative to control; assay type: functional
[14] = organism: Mus musculus; assay: Ratio of sodium valporate ED50 to compound ED50 in Swiss albino Mus musculus (mouse) PTZ-seizure model; assay type: functional
[15] = system: Mus musculus; assay: Anticonvulsant activity in Swiss albino Mus musculus (mouse) assessed as protection against maximal electric shock-induced seizure at 1.5 mmol/kg, ip administered 30 min prior to maximal electric shock-challenge measured up to 30 min relative to control; assay type: functional
[16] = system: Mus musculus; assay: Neurotoxicity against Swiss albino Mus musculus (mouse) at 0.75 mmol/kg, ip measured after 15 to 25 min by chimney test; assay type: toxicity, organism-based; conditions: in vivo
[17] = system: Mus musculus; assay: Anticonvulsant activity in Swiss albino Mus musculus (mouse) assessed as protection against picrotoxin-induced seizure at 0.18 mmol/kg, i.p. administered 30 min prior to picrotoxin-challenge measured up to 30 min relative to control; assay type: functional
[18] = organism: Mus musculus; assay: Protective index, ratio of TD50 for to ED50 in Swiss albino Mus musculus (mouse)
[19] = Neurotoxicity against ip dosed Swiss albino Mus musculus (mouse) measured after 15 to 25 min by chimney test; assay type: toxicity, organism-based; conditions: in vivo
[20] = system: Mus musculus; assay: Anticonvulsant activity in Swiss albino Mus musculus (mouse) assessed as protection against bicuculline-induced seizure at 0.37 mmol/kg, i.p. administered 30 min prior to bicuculline-challenge measured up to 30 min relative to control; assay type: functional
[21] = system: Mus musculus; assay: Anticonvulsant activity in Swiss albino Mus musculus (mouse) assessed as protection against maximal electric shock-induced seizure at 0.75 mmol/kg, i.p. administered 30 min prior to maximal electric shock-challenge measured up to 30 min relative to control; assay type: functional
[22] = system: Mus musculus; assay: Anticonvulsant activity in Swiss albino Mus musculus (mouse) assessed as protection against bicuculline-induced seizure at 0.75 mmol/kg, i.p. administered 30 min prior to bicuculline-challenge measured up to 30 min relative to control; assay type: functional
[23] = system: Mus musculus; assay: Anticonvulsant activity in Swiss albino Mus musculus (mouse) assessed as protection against maximal electric shock-induced seizure at 0.37 mmol/kg, i.p. administered 30 min prior to maximal electric shock-challenge measured up to 30 min relative to control; assay type: functional
[24] = system: Mus musculus; assay: Neurotoxicity against Swiss albino Mus musculus (mouse) at 0.18 mmol/kg, ip measured after 15 to 25 min by chimney test; assay type: toxicity, organism-based; conditions: in vivo
[25] = system: Mus musculus; assay: Anticonvulsant activity in Swiss albino Mus musculus (mouse) assessed as protection against bicuculline-induced seizure at 1.5 mmol/kg, ip administered 30 min prior to bicuculline-challenge measured up to 30 min relative to control; assay type: functional
[26] = Toxicity against Swiss albino Mus musculus (mouse) assessed as mortality at 1.5 mmol/kg, ip; assay type: organism-based; conditions: in vivo, read-out: Activity

For `Cc1ccc2nc(SCC(=O)NN3C(=O)c4c(Cl)c(Cl)c(Cl)c(Cl)c4C3=O)n(Cc3ccccc3)c(=O)c2c1`, the Activity [1] was “inactive”.
For `O=C1c2cccc3cccc(c23)C(=O)N1n1c(-c2cccs2)nc2ccc(I)cc2c1=O`, the Activity [1] was “inactive”.
`O=C1c2ccccc2C(=O)N1n1c(-c2cccs2)nc2ccc(I)cc2c1=O` showed an Activity [1] of 100%, an Activity [2] of 80% and a selectivity ratio [3] of 5.5. For the same compound, the Activity [4] was 70%, the Activity [5] was 30% and the LD50 [6] was 1380 mg/kg. It also gave an Activity [7] of 0%, an Activity [8] of 50% and an ED50 [9] of 251 mg/kg. For the same compound, the Activity [10] was 30%, the Activity [11] was 0% and the Activity [12] was 50%. The Activity [13] was 0%, the “Ratio ED50” value [14] was 2 and the Activity [15] was 30%. The Activity [16] was 30%, the Activity [17] was 20% and the “Ratio TD50/ED50” value [18] was 1.78. It also gave a TD50 [19] of 447 mg/kg, an Activity [20] of 10% and an Activity [21] of 0%. For the same compound, the Activity [22] was 40%, the Activity [23] was 0% and the Activity [24] was 0%. For the same compound, the Activity [25] was 100%.
`Cc1ccc2nc(SCC(=O)NN3C(=O)c4c(Cl)c(Cl)c(Cl)c(Cl)c4C3=O)n(-c3ccccc3)c(=O)c2c1` showed an Activity [1] of 70%, an Activity [2] of 100% and a selectivity ratio [3] of 2.82. For the same compound, the Activity [4] was 50%, the Activity [5] was 0% and the LD50 [6] was 1290 mg/kg. For the same compound, the Activity [7] was 0%, the Activity [8] was 20% and the ED50 [9] was 457 mg/kg. The Activity [10] was 30%, the Activity [11] was 0% and the Activity [13] was 0%. The Activity [15] was 70%, the Activity [16] was 30% and the “Ratio TD50/ED50” value [18] was 1.22. The TD50 [19] was 562 mg/kg, the Activity [20] was 10% and the Activity [21] was 10%. For the same compound, the Activity [22] was 70%, the Activity [23] was 0% and the Activity [24] was 0%. For the same compound, the Activity [25] was 100%.
For `Cc1ccc2nc(SCC(=O)NN3C(=O)CCC3=O)n(Cc3ccccc3)c(=O)c2c1`, the Activity [1] was 30%.
In the case of `O=C(COc1nc(-c2cccs2)nc2ccc(I)cc12)NN1C(=O)c2c(Cl)c(Cl)c(Cl)c(Cl)c2C1=O`, the Activity [1] is reported as 30%.
For `Cc1ccc2nc(SCC(=O)NN3C(=O)c4c(Br)c(Br)c(Br)c(Br)c4C3=O)n(-c3ccccc3)c(=O)c2c1`, the Activity [1] was “inactive”.
In the case of `Cc1ccc2nc(SCC(=O)NN3C(=O)c4ccccc4C3=O)n(-c3ccccc3)c(=O)c2c1`, the Activity [1] is reported as “inactive”.
With `Cc1ccc2nc(SCC(=O)NN3C(=O)c4c(Br)c(Br)c(Br)c(Br)c4C3=O)n(Cc3ccccc3)c(=O)c2c1` the Activity [1] was “inactive”.
For `Cn1c(-c2cccs2)nc2ccc(I)cc2c1=O`, the Activity [1] was 100%, the Activity [15] was 0% and the Activity [25] was 100%.
In the case of `O=C(COc1nc(-c2cccs2)nc2ccc(I)cc12)NN1C(=O)c2cccc3cccc(c23)C1=O`, the Activity [1] is reported as “inactive”.
In the case of `Cc1ccc2nc(SCC(=O)NN)n(-c3ccccc3)c(=O)c2c1`, the Activity [1] is reported as “inactive” and the mortality [26] is reported as 100%.
In the case of `O=C1c2cccc3cccc(c23)C(=O)N1Nc1nc2ccc([N+](=O)[O-])cc2c(=O)n1Cc1ccccc1`, the Activity [1] is reported as 30%.
In the case of `CCOC(=O)COc1nc(-c2cccs2)nc2ccc(I)cc12`, the Activity [1] is reported as 30%.
`O=C1c2c(Br)c(Br)c(Br)c(Br)c2C(=O)N1n1c(-c2cccs2)nc2ccc(I)cc2c1=O` gave an Activity [1] of 30%.
For `O=c1oc(-c2cccs2)nc2ccc(I)cc12`, the Activity [1] was “inactive”.
With `NNc1nc2ccc([N+](=O)[O-])cc2c(=O)n1Cc1ccccc1` the Activity [1] was “inactive”.
For `O=C(COc1nc(-c2cccs2)nc2ccc(I)cc12)NN1C(=O)c2ccccc2C1=O`, the Activity [1] was 30%.
With `Cc1ccc2nc(S)n(Cc3ccccc3)c(=O)c2c1` the Activity [1] was “inactive”.
